Measured values from ChEMBL document CHEMBL1201862, “PubChem BioAssay data set” (2004).
Activity calls are given as the source filed them.

How the values were obtained:
[1] = target: T1, Interleukin-8 (Homo sapiens, UniProt P10145); assay: Dose Response confirmation of uHTS small molecule hits for cystic fibrosis induced NFkb Inhibitors in a PAF-induced IL8 counterscreen.; assay type: functional; conditions: read-out: IC50_Mean
T1 sequence (P10145 whole entry): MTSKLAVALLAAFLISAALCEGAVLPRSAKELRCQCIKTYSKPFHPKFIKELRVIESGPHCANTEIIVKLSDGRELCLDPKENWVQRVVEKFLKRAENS

[2] = target: T2, Estrogen receptor beta (Homo sapiens, UniProt Q92731);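 note: recombinant ER-beta bound to coactivator SRC1 peptide in presence of estradiol agonist; inhibitors block coactivator peptide binding and lower the FRET signal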
T2 sequence (Q92731 whole entry): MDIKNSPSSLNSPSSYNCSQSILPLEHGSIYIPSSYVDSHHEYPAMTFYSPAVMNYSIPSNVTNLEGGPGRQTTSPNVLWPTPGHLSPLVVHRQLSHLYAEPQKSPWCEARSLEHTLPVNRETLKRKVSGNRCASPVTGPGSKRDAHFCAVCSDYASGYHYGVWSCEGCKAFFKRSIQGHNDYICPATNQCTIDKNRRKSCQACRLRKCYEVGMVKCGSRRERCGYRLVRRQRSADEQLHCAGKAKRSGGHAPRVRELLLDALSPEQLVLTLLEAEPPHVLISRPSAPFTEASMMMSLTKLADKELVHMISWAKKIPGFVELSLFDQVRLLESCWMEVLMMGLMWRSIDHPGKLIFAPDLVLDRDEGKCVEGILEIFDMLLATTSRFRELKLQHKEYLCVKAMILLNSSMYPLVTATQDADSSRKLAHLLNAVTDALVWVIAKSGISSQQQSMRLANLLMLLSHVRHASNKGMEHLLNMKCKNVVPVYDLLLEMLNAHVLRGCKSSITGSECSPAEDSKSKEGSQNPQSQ

[3] = target: Genome polyprotein (dengue virus type 2, UniProt P29990); assay: Dengue-2 NS5 methyltransferase inhibitors, primary screen, biochemical, confirmation dose response (AID 588689); assay type: functional
Chain of Genome polyprotein (P29990 2492-3391 limits assumed): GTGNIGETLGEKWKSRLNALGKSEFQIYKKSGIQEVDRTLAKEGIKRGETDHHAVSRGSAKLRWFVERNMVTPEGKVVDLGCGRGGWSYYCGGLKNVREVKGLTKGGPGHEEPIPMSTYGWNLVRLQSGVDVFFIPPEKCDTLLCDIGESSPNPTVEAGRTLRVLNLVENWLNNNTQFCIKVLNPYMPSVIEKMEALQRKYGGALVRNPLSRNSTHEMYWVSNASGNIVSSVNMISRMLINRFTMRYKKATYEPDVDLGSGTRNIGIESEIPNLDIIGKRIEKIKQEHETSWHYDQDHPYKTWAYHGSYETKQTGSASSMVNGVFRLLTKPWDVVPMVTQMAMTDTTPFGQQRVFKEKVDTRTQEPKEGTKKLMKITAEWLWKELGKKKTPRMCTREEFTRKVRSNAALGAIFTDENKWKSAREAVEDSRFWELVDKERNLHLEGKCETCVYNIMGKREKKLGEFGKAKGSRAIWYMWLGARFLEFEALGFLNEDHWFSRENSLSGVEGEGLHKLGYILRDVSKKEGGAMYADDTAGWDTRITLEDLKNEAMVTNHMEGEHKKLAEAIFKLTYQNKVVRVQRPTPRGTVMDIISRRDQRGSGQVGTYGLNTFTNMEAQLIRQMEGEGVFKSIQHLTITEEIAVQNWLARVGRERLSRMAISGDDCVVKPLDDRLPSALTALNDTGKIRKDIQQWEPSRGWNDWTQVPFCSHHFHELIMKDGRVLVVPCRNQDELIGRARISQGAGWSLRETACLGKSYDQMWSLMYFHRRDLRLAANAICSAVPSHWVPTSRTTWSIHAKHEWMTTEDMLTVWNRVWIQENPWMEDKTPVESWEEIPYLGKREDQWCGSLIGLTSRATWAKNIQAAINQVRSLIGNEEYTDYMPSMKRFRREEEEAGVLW

[4] = target: Nonstructural protein 1 (Influenza A virus, UniProt Q194T2); assay type: functional, Influenza A virus (A/California/07/2009(H1N1))
Chain of Nonstructural protein 1 (Q194T2 whole entry): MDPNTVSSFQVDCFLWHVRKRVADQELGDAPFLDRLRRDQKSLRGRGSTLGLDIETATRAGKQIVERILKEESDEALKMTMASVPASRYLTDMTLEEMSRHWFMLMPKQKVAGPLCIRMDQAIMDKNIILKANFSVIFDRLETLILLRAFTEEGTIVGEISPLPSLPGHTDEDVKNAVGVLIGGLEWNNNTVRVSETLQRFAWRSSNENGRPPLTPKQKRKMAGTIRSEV

[5] = system: Streptococcus sp. 'group A'; assay: growth inhibition of control SK(-) GAS strain, dose response, counter-screen for streptokinase expression inhibitor project, luminescence, kanamycin, BacTiterGlo, confirmation (AID 1900); assay type: functional, organism-based
[6] = target: T3, Estrogen receptor (Homo sapiens, UniProt P03372);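 note: potency for inhibiting coactivator peptide recruitment to the receptor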
T3 sequence (P03372 whole entry): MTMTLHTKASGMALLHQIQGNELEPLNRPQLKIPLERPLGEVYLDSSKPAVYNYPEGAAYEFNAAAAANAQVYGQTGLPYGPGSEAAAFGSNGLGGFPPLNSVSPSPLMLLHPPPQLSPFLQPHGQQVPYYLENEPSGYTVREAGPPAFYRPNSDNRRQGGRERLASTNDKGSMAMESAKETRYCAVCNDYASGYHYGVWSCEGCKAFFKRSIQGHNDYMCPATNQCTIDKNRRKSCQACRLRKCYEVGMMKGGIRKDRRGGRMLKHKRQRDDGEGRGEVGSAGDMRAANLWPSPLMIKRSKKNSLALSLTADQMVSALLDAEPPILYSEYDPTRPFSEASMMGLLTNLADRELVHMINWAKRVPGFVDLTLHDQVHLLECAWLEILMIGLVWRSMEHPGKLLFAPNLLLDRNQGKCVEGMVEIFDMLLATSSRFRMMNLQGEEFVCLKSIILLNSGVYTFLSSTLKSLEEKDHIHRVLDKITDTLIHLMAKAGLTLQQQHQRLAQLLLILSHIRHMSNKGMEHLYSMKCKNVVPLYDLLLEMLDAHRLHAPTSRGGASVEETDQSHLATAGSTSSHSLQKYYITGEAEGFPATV

[7] = target: T2, Estrogen receptor beta; assay: ERβ–SRC-3 coactivator interaction inhibitors, confirmation, orthogonal assay, biochemical, ELISA, streptavidin-HRP readout (AID 1060)
[8] = system: Streptococcus; assay: Group A Streptococcus viability loss, dose response, counter-screen for streptokinase expression inhibitor project, luminescence, BacTiterGlo (AID 1915); assay type: functional, organism-based;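 note: potency for reduction of bacterial viability or growth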
[9] = target: DNA (cytosine-5)-methyltransferase 1 (Homo sapiens, UniProt P26358); assay: DNMT1 methyltransferase inhibitors, confirmation, biochemical, fluorescent molecular beacon (AID 602386); assay type: functional
Chain of DNA (cytosine-5)-methyltransferase 1 (P26358 whole entry, the tested form may be a part): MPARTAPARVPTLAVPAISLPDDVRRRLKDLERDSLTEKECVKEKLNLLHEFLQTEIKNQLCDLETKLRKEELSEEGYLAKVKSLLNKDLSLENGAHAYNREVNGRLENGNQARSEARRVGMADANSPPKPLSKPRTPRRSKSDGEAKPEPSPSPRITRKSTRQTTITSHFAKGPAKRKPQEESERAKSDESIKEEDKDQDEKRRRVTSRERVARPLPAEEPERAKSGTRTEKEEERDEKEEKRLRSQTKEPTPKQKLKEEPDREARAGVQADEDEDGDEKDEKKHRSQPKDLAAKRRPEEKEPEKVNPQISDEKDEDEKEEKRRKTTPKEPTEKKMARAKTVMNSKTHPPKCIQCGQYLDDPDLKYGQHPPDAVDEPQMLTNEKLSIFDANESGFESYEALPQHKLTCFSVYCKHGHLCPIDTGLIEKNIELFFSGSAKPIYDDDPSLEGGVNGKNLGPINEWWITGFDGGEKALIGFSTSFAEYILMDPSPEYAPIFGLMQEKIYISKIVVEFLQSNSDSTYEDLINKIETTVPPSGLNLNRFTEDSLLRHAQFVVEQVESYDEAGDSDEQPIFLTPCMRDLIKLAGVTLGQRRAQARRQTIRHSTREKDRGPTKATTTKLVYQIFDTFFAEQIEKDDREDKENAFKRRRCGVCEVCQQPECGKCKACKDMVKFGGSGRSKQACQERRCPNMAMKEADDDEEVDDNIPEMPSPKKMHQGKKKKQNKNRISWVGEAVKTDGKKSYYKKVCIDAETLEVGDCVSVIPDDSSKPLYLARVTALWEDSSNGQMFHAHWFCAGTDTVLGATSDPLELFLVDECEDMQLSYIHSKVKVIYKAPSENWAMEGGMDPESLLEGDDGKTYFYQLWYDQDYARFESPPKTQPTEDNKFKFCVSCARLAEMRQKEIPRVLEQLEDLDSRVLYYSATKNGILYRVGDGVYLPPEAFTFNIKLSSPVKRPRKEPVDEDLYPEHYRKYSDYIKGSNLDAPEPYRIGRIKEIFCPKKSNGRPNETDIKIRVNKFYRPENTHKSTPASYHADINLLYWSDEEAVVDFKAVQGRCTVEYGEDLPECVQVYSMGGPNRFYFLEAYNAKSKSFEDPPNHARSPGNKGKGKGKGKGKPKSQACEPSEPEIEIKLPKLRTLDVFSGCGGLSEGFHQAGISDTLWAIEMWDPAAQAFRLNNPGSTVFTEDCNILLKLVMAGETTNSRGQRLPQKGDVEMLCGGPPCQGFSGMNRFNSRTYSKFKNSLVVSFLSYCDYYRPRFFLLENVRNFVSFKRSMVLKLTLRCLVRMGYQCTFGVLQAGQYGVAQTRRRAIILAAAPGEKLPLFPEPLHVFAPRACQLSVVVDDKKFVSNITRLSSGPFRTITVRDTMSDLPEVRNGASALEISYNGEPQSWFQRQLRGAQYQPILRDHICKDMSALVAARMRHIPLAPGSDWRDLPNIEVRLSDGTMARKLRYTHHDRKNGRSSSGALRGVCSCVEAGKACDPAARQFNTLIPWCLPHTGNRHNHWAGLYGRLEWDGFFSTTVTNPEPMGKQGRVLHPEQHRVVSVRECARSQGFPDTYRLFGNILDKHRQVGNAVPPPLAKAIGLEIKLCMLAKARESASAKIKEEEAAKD

[10] = ARNT/TACC3 interaction disruptors, potency, confirmation, biochemical, AlphaScreen, cherry-picked samples (AID 651703); assay type: functional, Homo sapiens;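 note: His-tagged ARNT PAS-B domain paired with GST-TACC3 E629A dimer coactivator fragment; potency of inhibitors that break up the complex and lower AlphaScreen signal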
[11] = target: T4, Replicative DNA helicase DnaB (Mycobacterium tuberculosis, UniProt P9WMR3); assay: DnaB intein splicing inhibitors, dose response, biochemical, cell-free fluorescence (AID 449749); assay type: functional
T4 sequence (P9WMR3 whole entry): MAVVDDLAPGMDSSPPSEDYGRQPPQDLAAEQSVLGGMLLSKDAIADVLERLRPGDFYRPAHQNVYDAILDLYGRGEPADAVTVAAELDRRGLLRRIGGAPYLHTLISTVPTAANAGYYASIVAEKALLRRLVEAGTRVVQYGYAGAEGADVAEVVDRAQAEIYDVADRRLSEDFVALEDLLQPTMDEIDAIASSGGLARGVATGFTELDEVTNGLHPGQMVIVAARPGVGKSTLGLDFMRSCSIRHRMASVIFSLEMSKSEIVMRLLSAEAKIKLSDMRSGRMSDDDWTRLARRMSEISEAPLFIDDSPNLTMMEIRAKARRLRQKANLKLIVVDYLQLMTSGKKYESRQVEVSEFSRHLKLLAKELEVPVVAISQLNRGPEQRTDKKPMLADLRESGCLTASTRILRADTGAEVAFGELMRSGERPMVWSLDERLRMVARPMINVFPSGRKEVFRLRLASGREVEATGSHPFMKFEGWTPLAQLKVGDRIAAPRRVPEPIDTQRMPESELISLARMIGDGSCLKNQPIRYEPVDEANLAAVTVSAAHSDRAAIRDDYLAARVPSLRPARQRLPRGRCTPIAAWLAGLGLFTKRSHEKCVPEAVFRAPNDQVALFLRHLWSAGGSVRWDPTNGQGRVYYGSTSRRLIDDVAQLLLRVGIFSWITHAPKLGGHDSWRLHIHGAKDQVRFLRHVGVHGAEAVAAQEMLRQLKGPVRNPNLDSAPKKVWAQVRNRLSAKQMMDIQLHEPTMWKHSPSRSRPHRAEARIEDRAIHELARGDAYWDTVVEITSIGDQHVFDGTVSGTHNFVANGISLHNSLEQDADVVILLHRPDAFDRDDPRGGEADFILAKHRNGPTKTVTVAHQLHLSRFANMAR

[12] = target: T5, Protein RecA (Mycobacterium tuberculosis, UniProt P9WHJ3); assay: Fluorescence Cell-Free Homogeneous Dose Retest to Identify Inhibitors of RecA-Intein Splicing Activity. [Related pubchem assays (depositor defined):AID2097, AID2223, AID489010, AID492950]; assay type: functional
T5 sequence (P9WHJ3 whole entry): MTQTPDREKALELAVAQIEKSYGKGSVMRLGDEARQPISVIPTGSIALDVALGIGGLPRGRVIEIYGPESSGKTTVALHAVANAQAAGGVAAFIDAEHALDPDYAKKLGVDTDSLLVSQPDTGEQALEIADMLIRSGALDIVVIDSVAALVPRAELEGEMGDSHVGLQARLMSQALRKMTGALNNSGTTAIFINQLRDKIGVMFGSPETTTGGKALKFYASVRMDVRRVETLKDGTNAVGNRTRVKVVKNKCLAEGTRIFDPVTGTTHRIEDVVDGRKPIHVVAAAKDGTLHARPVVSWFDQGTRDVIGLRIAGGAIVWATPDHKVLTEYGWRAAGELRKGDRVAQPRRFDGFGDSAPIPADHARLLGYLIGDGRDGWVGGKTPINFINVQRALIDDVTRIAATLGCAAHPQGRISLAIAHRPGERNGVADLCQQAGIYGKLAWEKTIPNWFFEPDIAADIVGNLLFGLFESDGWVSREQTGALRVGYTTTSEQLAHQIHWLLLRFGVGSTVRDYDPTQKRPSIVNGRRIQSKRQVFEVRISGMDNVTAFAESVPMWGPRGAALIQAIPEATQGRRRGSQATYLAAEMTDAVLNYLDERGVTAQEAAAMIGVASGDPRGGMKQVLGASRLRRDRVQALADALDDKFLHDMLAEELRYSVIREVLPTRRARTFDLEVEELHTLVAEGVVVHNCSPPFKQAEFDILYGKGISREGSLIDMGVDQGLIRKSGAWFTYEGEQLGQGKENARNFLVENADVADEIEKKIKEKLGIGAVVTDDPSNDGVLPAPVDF

[13] = AlphaScreen signal interference compounds, dose response, artefact control for ARNT-TACC3 interaction inhibitor project, biochemical, luminescence, cherry-pick (AID 651705); assay type: functional;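 note: AlphaScreen bead proximity signal that flags compounds interfering with the detection technology; potency reflects signal decrease which marks the compound as an assay artifact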
[14] = target: T6, Corticotropin-releasing factor receptor 2/Corticotropin-releasing factor-binding protein (Homo sapiens, UniProt P24387+Q13324); assay: activators of CRF receptor 2 with binding protein – uHTS hits, confirmation (AID 602473); assay type: functional; conditions: read-out: EC50_Mean
T6 sequence (Q13324 whole entry): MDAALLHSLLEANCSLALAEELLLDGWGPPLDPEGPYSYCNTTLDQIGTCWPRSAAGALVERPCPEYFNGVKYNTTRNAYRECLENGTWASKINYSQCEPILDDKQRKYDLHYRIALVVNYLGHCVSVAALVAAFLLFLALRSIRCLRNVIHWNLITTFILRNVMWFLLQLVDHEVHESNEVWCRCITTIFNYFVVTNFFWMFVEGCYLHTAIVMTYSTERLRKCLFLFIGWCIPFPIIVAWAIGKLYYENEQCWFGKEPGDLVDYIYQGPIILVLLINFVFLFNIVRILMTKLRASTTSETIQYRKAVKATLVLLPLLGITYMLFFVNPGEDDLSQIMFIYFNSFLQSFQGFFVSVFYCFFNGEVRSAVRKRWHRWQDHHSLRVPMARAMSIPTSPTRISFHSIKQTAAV
T6 sequence (P24387 whole entry): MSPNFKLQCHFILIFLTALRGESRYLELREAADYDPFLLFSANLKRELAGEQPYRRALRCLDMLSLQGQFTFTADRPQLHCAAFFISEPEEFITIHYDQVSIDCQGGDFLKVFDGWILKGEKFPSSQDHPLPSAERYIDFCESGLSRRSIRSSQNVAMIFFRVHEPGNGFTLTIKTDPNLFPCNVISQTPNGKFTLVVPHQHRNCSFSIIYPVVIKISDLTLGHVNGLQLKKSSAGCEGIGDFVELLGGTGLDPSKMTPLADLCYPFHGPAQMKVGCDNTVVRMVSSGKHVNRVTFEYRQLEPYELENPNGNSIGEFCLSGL

[15] = target: T7, Carboxy-terminal domain RNA polymerase II polypeptide A small phosphatase 1 (Homo sapiens, UniProt Q9GZU7); assay: inhibitors of CTDSP1, concentration-response testing, biochemical assay, absorbance-based, actives from ultra-high-throughput screening (AID 540297); assay type: functional
T7 sequence (Q9GZU7 whole entry): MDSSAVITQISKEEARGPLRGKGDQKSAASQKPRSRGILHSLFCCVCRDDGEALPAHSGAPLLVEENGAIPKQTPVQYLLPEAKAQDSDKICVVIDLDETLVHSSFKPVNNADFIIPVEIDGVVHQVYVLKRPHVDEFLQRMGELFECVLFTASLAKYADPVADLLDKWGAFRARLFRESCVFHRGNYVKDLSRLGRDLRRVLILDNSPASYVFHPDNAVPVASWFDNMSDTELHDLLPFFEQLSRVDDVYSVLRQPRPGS

[16] = target: T6, Corticotropin-releasing factor receptor 2/Corticotropin-releasing factor-binding protein; assay: Dose Response confirmation of uHTS hits for small molecule antagonists of the CRF-binding protein and CRF-R2 receptor complex.; assay type: functional; conditions: read-out: IC50_Mean
[17] = CRF-BP/CRF-R2 complex antagonists, dose response, cell-based, uHTS hits, 384-well (AID 651639); assay type: functional, Homo sapiens; conditions: read-out: IC50_Mean

With `OCCN1CCN(c2ncnc3ccc(Br)cc23)CC1` the IC50 [1] was 22 µM (inactive).

In the case of `Cc1nn(-c2ccccc2)c(Cl)c1/C=N/Nc1ccc(S(=O)(=O)Nc2ccccc2C(=O)O)cc1[N+](=O)[O-]`, the IC50 [2] is reported as 7.26 µM (active), the IC50 [3] is reported as 33.1 µM (active) and the IC50 [4] is reported as 67.6 µM (active). For the same compound, the EC50 [5] was 1.86 µM (active), the IC50 [6] was 6.84 µM (active) and the IC50 [7] was > 50 µM (not active). The EC50 [8] was 4.27 µM (active) and the IC50 [9] was 4.29 µM (active).

In the case of `COC(=O)CC1=NN(c2nc(C)cc(C)n2)C(=O)C1`, the AC50 [10] is reported as 123 µM (active), the AC50 [11] is reported as 103 µM (active) and the EC50 [12] is reported as > 380 µM (inactive).

For `Cc1cccc(NC(=O)CSc2cccc3cccnc23)c1`, the AC50 [13] was 76.9 µM (active).

For `C=CCn1cnc2c(c1=O)c1nc3ccccc3nc1n2/N=C/c1cccc(OC)c1OC`, the EC50 [14] was > 53 µM (inactive), the IC50 [15] was 10.1 µM (active) and the IC50 [16] was 3.36 µM (active). The IC50 [17] was 2.21 µM (active).
